The record followed here is ChEMBL document CHEMBL2040782 (Eur J Med Chem, 2012).

Molecules are shown by their SMILES.

The inhibition is the change of the read-out against control, counted positive when it falls. A word on the IC50: it is the concentration needed to halve the response being measured. A higher IC50 goes with weaker potency.

Data set [1] relates to Rattus norvegicus. The experiment in a line: Wake promoting activity in EEG/EMG Sprague-Dawley rat model assessed as slow wave sleep and rapid eye movement sleep time at 100 mg/kg, ip measured up to 3 hrs (reference value: 65 +/- 9 mins). The format is functional. The conditions noted are these: route intraperitoneal.
Data set [2] deals with CYP3A4 (Homo sapiens, UniProt P08684). Description: Inhibition of CYP3A4 at 10 uM. The format is ADME.
Data set [3] has as its target CYP3A5 (Homo sapiens, UniProt P20815). Description: Inhibition of CYP3A5 at 10 uM. The format is ADME.
In data set [4] the target is CYP2D6 (Homo sapiens, UniProt P10635). The experiment in a line: Inhibition of CYP2D6 at 10 uM. The format is ADME.
In data set [5] the target is T1, Sodium-dependent dopamine transporter (Rattus norvegicus, UniProt P23977). Description: Inhibition of rat DAT.
T1 sequence (P23977 whole entry): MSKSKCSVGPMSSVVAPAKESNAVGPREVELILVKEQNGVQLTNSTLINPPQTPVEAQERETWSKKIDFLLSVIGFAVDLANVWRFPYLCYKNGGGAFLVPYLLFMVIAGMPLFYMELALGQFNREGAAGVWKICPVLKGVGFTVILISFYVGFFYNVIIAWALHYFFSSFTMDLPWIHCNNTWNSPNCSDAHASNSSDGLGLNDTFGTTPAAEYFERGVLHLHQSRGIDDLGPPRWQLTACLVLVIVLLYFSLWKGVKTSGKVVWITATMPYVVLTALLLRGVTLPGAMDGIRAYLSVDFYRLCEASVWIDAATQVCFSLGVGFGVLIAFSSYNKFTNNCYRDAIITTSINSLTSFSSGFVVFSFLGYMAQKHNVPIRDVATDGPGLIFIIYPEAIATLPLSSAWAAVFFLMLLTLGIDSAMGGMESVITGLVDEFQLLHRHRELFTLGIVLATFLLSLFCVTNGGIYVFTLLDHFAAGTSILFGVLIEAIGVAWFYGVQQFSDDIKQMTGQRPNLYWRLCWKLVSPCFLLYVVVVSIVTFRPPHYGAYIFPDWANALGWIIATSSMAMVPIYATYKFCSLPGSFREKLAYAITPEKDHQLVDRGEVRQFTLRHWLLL
In data set [6] the target is T1, Sodium-dependent dopamine transporter. Description: Inhibition of rat DAT-mediated dopamine reuptake.
Data set [7] addresses Transporter (Rattus norvegicus, UniProt Q63380). Description: Inhibition of rat NET-mediated norepinephrine reuptake.
Data set [8] has as its target Sodium-dependent serotonin transporter (Rattus norvegicus, UniProt P31652). The experiment in a line: Inhibition of rat SERT-mediated serotonin reuptake.
Data set [9] addresses Cytochrome P450 2C19 (Homo sapiens, UniProt P33261). The experiment in a line: Inhibition of CYP2C19. The format is ADME.
Data set [10] concerns the target Cytochrome P450 3A4 (Homo sapiens, UniProt P08684). Description: Inhibition of CYP3A4. The format is ADME.
The target in data set [11] is Cytochrome P450 3A5 (Homo sapiens, UniProt P20815). The experiment in a line: Inhibition of CYP3A5. The format is ADME.
Cytochrome P450 3A5, sequence (P20815 whole entry): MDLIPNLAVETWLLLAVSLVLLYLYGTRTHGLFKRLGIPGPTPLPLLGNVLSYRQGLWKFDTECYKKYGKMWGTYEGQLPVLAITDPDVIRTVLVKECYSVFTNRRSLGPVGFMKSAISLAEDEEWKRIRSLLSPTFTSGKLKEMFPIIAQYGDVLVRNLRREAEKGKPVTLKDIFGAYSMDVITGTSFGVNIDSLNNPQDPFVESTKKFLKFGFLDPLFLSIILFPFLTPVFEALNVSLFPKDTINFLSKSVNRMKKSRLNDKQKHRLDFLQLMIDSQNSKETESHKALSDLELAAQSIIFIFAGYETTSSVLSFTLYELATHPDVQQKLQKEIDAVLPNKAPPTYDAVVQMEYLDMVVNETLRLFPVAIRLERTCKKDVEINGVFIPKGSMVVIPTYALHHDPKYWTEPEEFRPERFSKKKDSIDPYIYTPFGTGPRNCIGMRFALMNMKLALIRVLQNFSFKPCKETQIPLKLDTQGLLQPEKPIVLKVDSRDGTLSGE
Data set [12] concerns the target Cytochrome P450 2D6 (Homo sapiens, UniProt P10635). The experiment in a line: Inhibition of CYP2D6. The format is ADME.
For data set [13], the target named is Cytochrome P450 2C9 (Homo sapiens, UniProt P11712). The experiment in a line: Inhibition of CYP2C9. The format is ADME.
Cytochrome P450 2C9, sequence (P11712 whole entry): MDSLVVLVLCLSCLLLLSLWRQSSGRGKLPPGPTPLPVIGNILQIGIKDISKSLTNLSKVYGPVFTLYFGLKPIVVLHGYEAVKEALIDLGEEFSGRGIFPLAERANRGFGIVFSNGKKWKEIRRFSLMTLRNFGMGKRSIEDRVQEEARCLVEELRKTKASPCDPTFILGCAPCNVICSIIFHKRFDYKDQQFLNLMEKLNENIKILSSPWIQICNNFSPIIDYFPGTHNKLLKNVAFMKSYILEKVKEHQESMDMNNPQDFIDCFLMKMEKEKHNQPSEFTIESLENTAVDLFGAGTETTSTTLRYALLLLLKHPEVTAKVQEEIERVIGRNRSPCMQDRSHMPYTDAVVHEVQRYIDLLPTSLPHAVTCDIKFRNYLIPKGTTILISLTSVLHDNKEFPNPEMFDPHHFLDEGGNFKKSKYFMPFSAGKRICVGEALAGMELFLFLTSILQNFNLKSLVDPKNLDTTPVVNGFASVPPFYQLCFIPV
Data set [14] addresses T2, CYP1A1 (Homo sapiens, UniProt P04798).
T2 sequence (P04798 whole entry): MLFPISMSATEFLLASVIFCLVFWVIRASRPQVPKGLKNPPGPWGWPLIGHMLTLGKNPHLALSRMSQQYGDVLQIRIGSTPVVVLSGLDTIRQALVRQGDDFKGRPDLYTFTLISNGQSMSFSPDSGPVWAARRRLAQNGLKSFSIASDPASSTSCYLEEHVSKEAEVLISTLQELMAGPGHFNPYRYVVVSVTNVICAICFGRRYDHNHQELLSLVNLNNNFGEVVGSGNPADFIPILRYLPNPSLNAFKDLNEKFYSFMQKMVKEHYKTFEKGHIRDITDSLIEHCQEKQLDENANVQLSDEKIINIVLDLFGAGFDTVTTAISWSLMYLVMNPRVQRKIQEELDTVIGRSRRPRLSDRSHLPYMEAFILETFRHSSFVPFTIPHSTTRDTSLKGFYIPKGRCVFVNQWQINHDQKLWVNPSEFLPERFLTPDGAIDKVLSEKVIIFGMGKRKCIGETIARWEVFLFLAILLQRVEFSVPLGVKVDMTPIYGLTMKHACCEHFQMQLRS
The experiment in a line: (§1) Inhibition of CYP1A1 ( at 100 uM). The format is ADME.

The target in data set [15] is T3, CYP1A2 (Homo sapiens, UniProt P05177).
T3 sequence (P05177 whole entry): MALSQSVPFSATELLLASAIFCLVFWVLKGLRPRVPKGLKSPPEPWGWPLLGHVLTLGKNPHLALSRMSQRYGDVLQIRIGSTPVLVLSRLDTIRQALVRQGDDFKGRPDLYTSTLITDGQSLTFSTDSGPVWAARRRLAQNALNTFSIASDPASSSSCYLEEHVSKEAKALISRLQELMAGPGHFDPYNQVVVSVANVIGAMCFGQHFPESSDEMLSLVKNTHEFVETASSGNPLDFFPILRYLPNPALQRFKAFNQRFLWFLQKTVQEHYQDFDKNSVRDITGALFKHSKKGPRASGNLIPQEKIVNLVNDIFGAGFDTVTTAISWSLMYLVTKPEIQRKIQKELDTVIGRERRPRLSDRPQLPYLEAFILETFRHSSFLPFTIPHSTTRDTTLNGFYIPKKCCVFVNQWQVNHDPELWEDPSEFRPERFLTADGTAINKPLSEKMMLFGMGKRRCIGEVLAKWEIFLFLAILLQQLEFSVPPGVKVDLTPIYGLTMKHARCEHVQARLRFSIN
The experiment in a line: (§2) Inhibition of CYP1A2 ( at 100 uM). The format is ADME.

The target in data set [16] is Sodium-dependent serotonin transporter (Rattus norvegicus) (UniProt P31652). The experiment in a line: Inhibition of rat SERT at 10 uM.
Sodium-dependent serotonin transporter (Rattus norvegicus), sequence (P31652 whole entry): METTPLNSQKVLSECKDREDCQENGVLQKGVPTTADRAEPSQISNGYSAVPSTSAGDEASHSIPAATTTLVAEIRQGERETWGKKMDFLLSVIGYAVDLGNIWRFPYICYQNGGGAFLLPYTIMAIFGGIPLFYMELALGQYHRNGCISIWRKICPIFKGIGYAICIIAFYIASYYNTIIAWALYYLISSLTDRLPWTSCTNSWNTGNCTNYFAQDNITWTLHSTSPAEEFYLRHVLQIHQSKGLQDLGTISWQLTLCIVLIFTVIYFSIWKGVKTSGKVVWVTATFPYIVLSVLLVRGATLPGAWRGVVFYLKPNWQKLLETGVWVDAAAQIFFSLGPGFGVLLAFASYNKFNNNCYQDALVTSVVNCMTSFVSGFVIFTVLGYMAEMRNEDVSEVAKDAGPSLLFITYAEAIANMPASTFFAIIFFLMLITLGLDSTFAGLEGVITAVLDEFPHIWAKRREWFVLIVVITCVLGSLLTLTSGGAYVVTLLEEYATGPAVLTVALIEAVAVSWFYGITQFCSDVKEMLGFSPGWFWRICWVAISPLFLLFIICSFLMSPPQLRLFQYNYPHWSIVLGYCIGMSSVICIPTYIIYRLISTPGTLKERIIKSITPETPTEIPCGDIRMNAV
The target of data set [17] is Transporter (Rattus norvegicus) (UniProt Q63380). As to conditions: 10 uM.
Transporter (Rattus norvegicus), sequence (Q63380 as listed by the source): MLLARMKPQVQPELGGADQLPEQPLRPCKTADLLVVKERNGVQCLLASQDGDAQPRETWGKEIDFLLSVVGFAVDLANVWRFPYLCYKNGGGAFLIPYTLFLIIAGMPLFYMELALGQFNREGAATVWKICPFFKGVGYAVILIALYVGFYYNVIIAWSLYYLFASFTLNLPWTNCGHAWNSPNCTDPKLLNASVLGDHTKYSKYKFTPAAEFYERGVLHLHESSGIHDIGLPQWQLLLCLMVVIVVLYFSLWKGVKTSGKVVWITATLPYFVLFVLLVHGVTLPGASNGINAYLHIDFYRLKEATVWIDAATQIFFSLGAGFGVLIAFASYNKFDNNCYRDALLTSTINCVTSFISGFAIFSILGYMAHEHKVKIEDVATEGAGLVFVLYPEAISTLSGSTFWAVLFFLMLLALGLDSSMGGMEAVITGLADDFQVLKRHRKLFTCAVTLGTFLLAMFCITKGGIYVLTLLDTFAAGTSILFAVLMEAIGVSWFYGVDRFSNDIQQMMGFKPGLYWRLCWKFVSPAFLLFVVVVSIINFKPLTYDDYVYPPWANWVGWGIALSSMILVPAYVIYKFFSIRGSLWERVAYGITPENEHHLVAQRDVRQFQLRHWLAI
Description: Inhibition of rat NET at 10 uM
In data set [18] the target is T4, Cytochrome P450 1A1 (Homo sapiens, UniProt P04798).
T4 sequence (P04798 whole entry): T2 sequence (P04798 whole entry)
The data set is described as §1. The format is ADME. The conditions noted are these: 100 µM.

Data set [19] addresses T5, Cytochrome P450 1A2 (Homo sapiens, UniProt P05177).
T5 sequence (P05177 whole entry): T3 sequence (P05177 whole entry)
The data set is described as §2. The format is ADME. As to conditions: 100 µM.

Cytochrome P450 2C19, sequence (P33261 whole entry): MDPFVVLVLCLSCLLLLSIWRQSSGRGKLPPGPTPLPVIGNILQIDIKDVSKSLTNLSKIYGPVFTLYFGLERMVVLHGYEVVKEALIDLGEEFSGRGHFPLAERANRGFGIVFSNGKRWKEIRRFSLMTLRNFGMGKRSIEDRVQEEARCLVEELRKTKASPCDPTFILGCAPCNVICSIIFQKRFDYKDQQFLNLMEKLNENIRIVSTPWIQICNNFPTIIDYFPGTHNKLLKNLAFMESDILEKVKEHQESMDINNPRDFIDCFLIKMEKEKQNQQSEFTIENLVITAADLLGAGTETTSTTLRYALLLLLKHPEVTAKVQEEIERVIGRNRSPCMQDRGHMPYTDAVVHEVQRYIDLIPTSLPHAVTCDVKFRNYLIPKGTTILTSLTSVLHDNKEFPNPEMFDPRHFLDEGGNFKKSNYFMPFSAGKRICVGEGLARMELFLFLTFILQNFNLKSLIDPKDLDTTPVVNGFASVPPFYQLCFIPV
Sodium-dependent serotonin transporter, sequence (P31652 whole entry): as the sequence (P31652 whole entry) above
Cytochrome P450 2D6, sequence (P10635 whole entry): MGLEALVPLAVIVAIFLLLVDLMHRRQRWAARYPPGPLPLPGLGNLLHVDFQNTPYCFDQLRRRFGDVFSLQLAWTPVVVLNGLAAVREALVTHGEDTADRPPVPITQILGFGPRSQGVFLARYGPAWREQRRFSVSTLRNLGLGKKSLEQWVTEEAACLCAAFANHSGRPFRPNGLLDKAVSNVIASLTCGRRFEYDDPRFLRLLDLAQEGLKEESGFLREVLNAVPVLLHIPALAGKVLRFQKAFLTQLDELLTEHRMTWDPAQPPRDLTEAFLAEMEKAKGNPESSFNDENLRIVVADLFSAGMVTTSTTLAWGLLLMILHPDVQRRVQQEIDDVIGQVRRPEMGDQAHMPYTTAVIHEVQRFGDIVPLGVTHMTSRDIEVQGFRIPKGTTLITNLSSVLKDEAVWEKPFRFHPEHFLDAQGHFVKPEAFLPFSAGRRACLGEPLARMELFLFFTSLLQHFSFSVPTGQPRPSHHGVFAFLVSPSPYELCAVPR
Cytochrome P450 3A4, sequence (P08684 whole entry): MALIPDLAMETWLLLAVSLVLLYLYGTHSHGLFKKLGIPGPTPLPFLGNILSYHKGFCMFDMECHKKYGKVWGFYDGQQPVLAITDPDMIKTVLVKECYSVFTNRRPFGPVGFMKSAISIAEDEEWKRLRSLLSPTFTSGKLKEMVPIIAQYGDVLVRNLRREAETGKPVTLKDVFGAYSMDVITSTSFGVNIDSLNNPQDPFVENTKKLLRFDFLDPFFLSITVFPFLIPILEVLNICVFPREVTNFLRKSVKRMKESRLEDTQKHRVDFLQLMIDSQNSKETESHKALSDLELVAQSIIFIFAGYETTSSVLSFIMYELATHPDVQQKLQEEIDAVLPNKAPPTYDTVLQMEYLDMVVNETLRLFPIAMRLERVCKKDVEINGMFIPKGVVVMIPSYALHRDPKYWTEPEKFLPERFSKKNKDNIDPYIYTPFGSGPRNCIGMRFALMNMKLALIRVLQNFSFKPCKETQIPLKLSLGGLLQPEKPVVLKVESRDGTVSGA
Transporter, sequence (Q63380 whole entry): as the sequence (Q63380 as listed by the source) above

With `NC(=O)C[S+]([O-])Cc1ccccc1Oc1ccc(F)c(Cl)c1` (racemic), the Time in data set [1] came to 160 min.
Still for that read-out and setting: to `NC(=O)C[S+]([O-])Cc1ccccc1Oc1ccc(Cl)c(F)c1` (racemic) belongs 176 min.
Turning to `NC(=O)C[S+]([O-])Cc1ccccc1Oc1ccc(Cl)c(Cl)c1` (racemic), the Time in data set [1] (100 mg/kg) is recorded as 180 min.
Take `NC(=O)C[S+]([O-])Cc1ccccc1Oc1cc(Cl)cc(Cl)c1` (racemic): the Time in [1] was determined as 117 min.
Turning to `NC(=O)C[S+]([O-])C(c1ccccc1)c1ccccc1` (stereo unspecified) [MODAFINIL], in data set [1], the Time is recorded as 117 min. Further, the inhibition at 10 µM in data set [2], in data set [3] and in data set [4] was below 10% throughout.
For the compound `NC(=O)C[S+]([O-])Cc1ccccc1Oc1ccc(Cl)cc1Cl` (racemic), the Time in [1] is given as 74 min.
The same measure, in the same setting: with `NC(=O)C[S+]([O-])Cc1ccc(Oc2ccc(Cl)c(Cl)c2)cc1` (stereo unspecified) the figure was 88 min; with `NC(=O)C[S+]([O-])Cc1ccccc1Oc1ccc(Cl)cc1` (racemic), 165 min.
`NC(=O)C[S+]([O-])Cc1ccccc1Oc1ccc(Cl)c(Cl)c1` (single isomer, unassigned; (-)) [listing 1 of 2 here]: the Time in data set [1] (100 mg/kg) stood at 168 min. Besides, the IC50 in data set [5] was 0.2 µM; in data set [6] it was 1.1 µM; in data set [7], 1.3 µM; in [8], 31 µM; in data set [9], 30 µM; in data set [10] it was 40 µM. Further, the results for the IC50 in [11], in [12] and in data set [13] were 40 µM, 106 µM and 216 µM, respectively. Moreover, the inhibition at 100 µM in data set [14] and in data set [15] was 10% throughout.
With `NC(=O)C[S+]([O-])Cc1ccccc1Oc1ccc(Cl)c(Cl)c1` (single isomer, unassigned; (-)) [listing 2 of 2 here], the inhibition in [16] came out at 30%; in data set [17] it was 48%.
`NC(=O)C[S+]([O-])Cc1ccccc1Oc1ccc(Cl)c(Cl)c1` (single isomer, unassigned; (+)) [listing 1 of 2 here]: the Time in data set [1] (100 mg/kg) stood at 167 min. Moreover, the IC50 in [5] was determined as 0.9 µM; in data set [6], 1.1 µM; in data set [7], 3.1 µM; in data set [8], 33 µM; in data set [9], 20 µM; in data set [10], 32 µM. The results for the IC50 in data set [11] and in data set [12] were 32 µM and 89 µM, respectively. The “inhibition (INH)” value in [18] and in [19] was 18% throughout.
For the compound `NC(=O)C[S+]([O-])Cc1ccccc1Oc1ccc(F)cc1` (racemic), the Time in data set [1] stood at 123 min.
As to `NC(=O)C[S+]([O-])Cc1ccccc1Oc1ccc(Cl)c(Cl)c1` (single isomer, unassigned; (+)) [listing 2 of 2 here], the inhibition in data set [16] came to 24%; in data set [17], 39%.
Take `NC(=O)C[S+]([O-])Cc1ccccc1Oc1ccc2ccccc2c1` (racemic): in data set [1], the Time was 131 min.
On the same count and under the same terms, to `NC(=O)C[S+]([O-])Cc1ccccc1Oc1cccc(Cl)c1Cl` (racemic) belongs 120 min.
